Data: US11917995B2, “Fungicidal compositions of mefentrifluconazole” (BASF AGRO B.V., priority 2018, dated 2024)

Legend:
Format in all cases: cell-based
[1] = tested on: Septoria tritici; experiment: Microtest: activity against leaf blotch on wheat caused by Septoria tritici (Septtr); details: single active compound, 0.001 ppm; 7 days after inoculation
Method: (§1) The visually determined percentages of infected leaf areas are converted into efficacies in % of the untreated control.
(§2) The efficacy (E) is calculated as follows using Abbot's formula: E=(1−α/β·100 • α corresponds to the fungicidal infection of the treated plants in % and • β corresponds to the fungicidal infection of the untreated (control) plants in %
(§3) An efficacy of 0 means that the infection level of the treated plants corresponds to that of the untreated control plants; an efficacy of 100 means that the treated plants were not infected. The expected efficacies of active compound combinations may be determined using Colby's formula (Colby, S. R. “Calculating synergistic and antagonistic responses of herbicide combinations”, Weeds, 15, pp. 20-22, 1967) and compared with the observed efficacies. […]
The stock solutions were mixed according to the ratio, pipetted onto a micro titer plate (MTP) and diluted with water to the stated concentrations. […] Using an absorption photometer, the MTPs were measured at 405 nm 7 days after the inoculation.
(§4) The measured parameters were compared to the growth of the active compound-free control variant (100%) and the fungus-free and active compound-free blank value to determine the relative growth in % of the pathogens in the respective active compounds.

[2] = tested on: Colletotrichum truncatum; experiment: Microtiterplate test: activity against Colletotrichum truncatum (Colldu); details: single active compound, 7 days after inoculation
Method: as §1, §2
(§5) An efficacy of 0 means that the infection level of the treated plants corresponds to that of the untreated control plants; an efficacy of 100 means that the treated plants were not infected. The expected efficacies of active compound combinations may be determined using Colby's formula (Colby, S. R. “Calculating synergistic and antagonistic responses of herbicide combinations”, Weeds, 15, pp. 20-22, 1967) and compared with the observed efficacies.
(§6) Colby's formula: E=x+y−x·y/100 • E expected efficacy, expressed in % of the untreated control, when using the mixture of the active compounds A and B at the concentrations a and b • x efficacy, expressed in % of the untreated control, when using the active compound A at the concentration a • y efficacy, expressed in % of the untreated control, when using the active compound B at the concentration b.
(§7) The active compounds were formulated separately as a stock solution having a concentration of 10000 ppm in dimethyl sulfoxide.
(§8) The stock solutions were mixed according to the ratio, pipetted onto a micro titer plate(MTP) and diluted with water to the stated concentrations. Spores of the respective pathogen in an aqueous biomalt or yeast-bactopeptone-glycerine solution were then added. The plates were placed in a water vapor-saturated chamber at a temperature of 18° C. Using an absorption photometer, the MTPs were measured at 405 nm 7 days after the inoculation.
as §4

[3] = tested on: Colletotrichum orbicularum; experiment: Microtiterplate test: activity against Colletotrichum orbicularum (Collla); details: single active compound, 7 days after inoculation
Method: as §1, §2, §5, §6, §7, §8, §4

[4] = tested on: Sclerotinia sclerotiorum; experiment: Microtiterplate test: activity against Sclerotinia sclerotiorum (Sclesc); details: single active compound, 0.25 ppm; 7 days after inoculation
Method: as §1, §2, §3
The stock solutions were mixed according to the ratio, pipetted onto a micro titer plate(MTP) and diluted with water to the stated concentrations. […] Using an absorption photometer, the MTPs were measured at 405 nm 7 days after the inoculation.
as §4

CCN(C)C=Nc1cc(C)c(Oc2ccccc2)cc1C [II-3, N′-(2,5-dimethyl-4-phenoxy-phenyl)-N-ethyl-N-methyl-formamidine]
Observed efficacy [1]: 5%
Observed efficacy ([2]; 4 ppm): 16%
Observed efficacy ([3]; 0.25 ppm): 19%
Observed efficacy [4]: 11%

CC(O)(Cn1cncn1)c1ccc(Oc2ccc(Cl)cc2)cc1C(F)(F)F (stereo not drawn) [Mefentrifluconazole, mefentrifluconazole]
Observed efficacy [1]: 0%
Observed efficacy ([2]; 0.063 ppm): 0%
Observed efficacy ([2]; 0.25 ppm): 8%
Observed efficacy ([2]; 1 ppm): 18%
Observed efficacy ([2]; 4 ppm): 28%
Observed efficacy ([3]; 0.25 ppm): 7%
Observed efficacy ([3]; 1 ppm): 25%
Observed efficacy [4]: 1%
